Results published in patent publication US9278958B2, “Anti-cancer compounds” (KATHOLIEKE UNIVERSITEIT LEUVEN, priority 2012, dated 2016).
Read-outs that look alike come from different tables or passages of the source.

Assays:
[1] = system: DU145 (UZ) prostate cancer cells; assay: Cytostatic assay, DU145 (UZ); assay type: cell-based; settings: Homo sapiens, DU-145; Table 4
Protocol: (§1) To each well of a 96-well microtiter plate were added 5-7.5×10^4 cells and a given amount of the test compound. The cells were allowed to proliferate for 48 h to 96 h (depending on the nature of the cell line) at 37° C. in a humidified CO2-controlled atmosphere. At the end of the incubation period, the cells were counted in a Coulter Counter (Coulter Electronics Ltd, Harpenden Herts, United Kingdom).

[2] = system: HL60, human leukemia cells; assay: Cytostatic assay, HL-60; assay type: cell-based; settings: Table 2
Protocol: as §1

[3] = system: PC-3 (UZ) prostate cancer cells; assay: Cytostatic assay, PC-3 (UZ); assay type: cell-based; settings: Table 4
Protocol: as §1

[4] = system: PC3 (rega) prostate cancer cells; assay: Cytostatic assay, PC3 (rega); assay type: cell-based; settings: Table 4
Protocol: as §1

[5] = system: Caki-1 kidney carcinoma cells; assay: Cytostatic assay, Caki-1; assay type: cell-based; settings: Homo sapiens, Table 3
Protocol: as §1

[6] = system: MCF-7 mammary carcinoma cells; assay: Cytostatic assay, MCF-7; assay type: cell-based; settings: Homo sapiens, MCF7; Table 3
Protocol: as §1

C8166 cells = assay: Cytostatic assay, C8166; assay type: cell-based; settings: Homo sapiens, Table 2
Protocol: as §1

[7] = system: U937, human monocytic cells; assay: Cytostatic assay, U937; assay type: cell-based; settings: U-937, Table 2
Protocol: as §1

[8] = system: PNT1A (UZ) prostate cells; assay: Cytostatic assay, PNT1A (UZ); assay type: cell-based; settings: Homo sapiens, Table 4
Protocol: as §1

PLC/PRF/5 hepatoma cells = assay: Cytostatic assay, PLC/PRF/5; assay type: cell-based; settings: Homo sapiens, Table 4
Protocol: as §1

HUT-78 cells = assay: Cytostatic assay, HUT-78; assay type: cell-based; settings: Homo sapiens, HuT78; Table 2
Protocol: as §1

Huh-7 hepatoma cells = assay: Cytostatic assay, Huh-7; assay type: cell-based; settings: Homo sapiens, Table 4
Protocol: as §1

[9] = system: THP-1, human monocytic cells; assay: Cytostatic assay, THP-1; assay type: cell-based; settings: Table 2
Protocol: as §1

MT-2 cells = assay: Cytostatic assay, MT-2; assay type: cell-based; settings: Homo sapiens, MT2; Table 2
Protocol: as §1

Sup T1 cells = assay: Cytostatic assay, Sup T1; assay type: cell-based; settings: Homo sapiens, Table 2, read-out: Cytostatic activity (μM) Sup T 1
Protocol: as §1

[10] = system: Raji, human B-lymphoma cells; assay: Cytostatic assay, Raji; assay type: cell-based; settings: Table 2
Protocol: as §1

[11] = system: HEL embryonic lung fibroblast cells; assay: Cytostatic assay, HEL; assay type: cell-based; settings: Homo sapiens, Table 3
Protocol: as §1

BPH-1 (UZ) = assay: Cytostatic assay, BPH-1 (UZ); assay type: cell-based; settings: Homo sapiens, Table 4
Protocol: as §1

[12] = system: BAEC aortic endothelial cells; assay: Cytostatic assay, BAEC; assay type: cell-based, bovine; settings: Bos taurus, Table 3
Protocol: as §1

[13] = system: Caki-2 kidney carcinoma cells; assay: Cytostatic assay, Caki-2; assay type: cell-based; settings: Homo sapiens, Table 3
Protocol: as §1

MT-4 cells = assay: Cytostatic assay, MT-4; assay type: cell-based; settings: Homo sapiens, MT4; Table 2
Protocol: as §1

[14] = system: FM3A mammary carcinoma cells; assay: Cytostatic assay, FM3A; assay type: cell-based, murine; settings: Mus musculus, Table 3
Protocol: as §1

[15] = system: HT29 colorectal carcinoma cells; assay: Cytostatic assay, HT29; assay type: cell-based; settings: Homo sapiens, HT-29; Table 3
Protocol: as §1

L1210 cells = assay: Cytostatic assay, L1210; assay type: cell-based; settings: Mus musculus, Table 2
Protocol: as §1

HepG2C3A hepatoma cells = assay: Cytostatic assay, HepG2C3A; assay type: cell-based; settings: Homo sapiens, HepG2/C3A; Table 4
Protocol: as §1

Molt4/C8 cells = assay: Cytostatic assay, Molt4/C8; assay type: cell-based; settings: Table 2
Protocol: as §1

[16] = system: 293T embryonic kidney cells; assay: Cytostatic assay, 293T; assay type: cell-based; settings: Homo sapiens, HEK-293T; Table 3
Protocol: as §1

[17] = system: LNCaP (UZ) prostate cancer cells; assay: Cytostatic assay, LNCaP (UZ); assay type: cell-based; settings: Homo sapiens, Table 4
Protocol: as §1

[18] = system: 22Rv1 (UZ) prostate cancer cells; assay: Cytostatic assay, 22Rv1 (UZ); assay type: cell-based; settings: Homo sapiens, Table 4
Protocol: as §1

[19] = system: OST TK- osteosarcoma cells; assay: Cytostatic assay, OST TK-; assay type: cell-based; settings: Homo sapiens; Table 3
Protocol: as §1

CEM cells = assay: Cytostatic assay, CEM; assay type: cell-based; settings: Homo sapiens, CCRF-CEM
Protocol: as §1

[20] = system: HeLa cervix carcinoma cells; assay: Cytostatic assay, HeLa; assay type: cell-based, human; settings: Homo sapiens; Table 3; read-out: Cytostatic activity (μM) Hela
Protocol: as §1

U87 glioma cells = assay: Cytostatic assay, U87; assay type: cell-based; settings: Homo sapiens, U-87 MG; Table 3
Protocol: as §1

[21] = Table 1a, read-out: IC50 μM (CEM)
[22] = Table 2, read-out: Cytostatic activity (μM) CEM

| Compound | IC50 [1] | IC50 [2] | IC50 [3] | IC50 [4] | IC50 [5] | IC50 [6] | IC50 (C8166 cells) | IC50 [7] | IC50 [8] | IC50 (PLC/PRF/5 hepatoma cells) | IC50 (HUT-78 cells) | IC50 (Huh-7 hepatoma cells) | IC50 [9] | IC50 (MT-2 cells) | IC50 (Sup T1 cells) | IC50 [10] | IC50 [11] | IC50 (BPH-1 (UZ)) | IC50 [12] | IC50 [13] | also measured |
| --- | --- | --- | --- | --- | --- | --- | --- | --- | --- | --- | --- | --- | --- | --- | --- | --- | --- | --- | --- | --- | --- |
| CCOC(=O)c1cc(-c2ccccc2OC)sc1N [TR531, 2-Amino-5-(2-methoxy-phenyl)-thiophene-3-carboxylic acid ethyl ester] | 34 ± 4.2 µM | 17 ± 5.7 µM | 28 ± 0.71 µM | 25 ± 6.4 µM | 17 ± 3.5 µM | 48 ± 11 µM | 133 ± 7.8 µM | 73 ± 3.5 µM | 45 ± 1.4 µM | 21 ± 0.71 µM | 108 ± 5.7 µM | 43 ± 12 µM | 25 ± 19 µM | 27 ± 4.2 µM | 28 ± 12 µM | 48 ± 13 µM | 25 ± 3.5 µM | 39 µM | 31 ± 6.4 µM | 17 ± 3.5 µM | IC50 (MT-4 cells): 44 ± 5.7 µM; IC50 [14]: 49 ± 1 µM; IC50 [15]: 43 ± 2.8 µM; IC50 (L1210 cells): 41 ± 3 µM; IC50 (HepG2C3A hepatoma cells): 10 ± 5.2 µM; IC50 (Molt4/C8 cells): 31 ± 2.1 µM; IC50 [16]: 58 ± 7.1 µM; IC50 [17]: 11 ± 5 µM; IC50 [18]: 20 ± 5.1 µM; IC50 [19]: 18 ± 1.4 µM; IC50 (CEM cells; [21]): 27 µM; IC50 (CEM cells; [22]): 27 ± 10 µM; IC50 [20]: 40 ± 9 µM; IC50 (U87 glioma cells): 38 ± 8.5 µM |
| CCOC(=O)c1c(N)sc(CCc2ccc(OC)cc2)c1C(=O)OCC [TR547, 2-Amino-5-[2-(4-methoxy-phenyl)-ethyl]-thiophene-3,4-dicarboxylic acid diethyl ester] | 89 ± 16 µM | 46 ± 25 µM | 31 ± 5.7 µM | 38 ± 12 µM | 87 ± 21 µM | 87 ± 21 µM | 122 ± 12 µM | 80 ± 3.5 µM | 56 µM | 75 ± 35 µM | 120 ± 44 µM | 51 ± 14 µM | 26 ± 2.8 µM | 31 ± 29 µM | 73 ± 13 µM | 58 ± 13 µM | 44 ± 3.5 µM | 65 ± 9.2 µM | 82 ± 26 µM | 57 ± 24 µM | IC50 (MT-4 cells): 38 ± 3.5 µM; IC50 [14]: 86 ± 5.6 µM; IC50 [15]: 46 ± 3.5 µM; IC50 (L1210 cells): 105 ± 48 µM; IC50 (HepG2C3A hepatoma cells): 48 ± 16 µM; IC50 (Molt4/C8 cells): 54 ± 6 µM; IC50 [16]: 58 ± 2.8 µM; IC50 [17]: 19 ± 10 µM; IC50 [18]: 31 ± 4.2 µM; IC50 [19]: 71 ± 7.8 µM; IC50 (CEM cells; [21]): 72 µM; IC50 (CEM cells; [22]): 72 ± 6.4 µM; IC50 [20]: 41 ± 7.1 µM; IC50 (U87 glioma cells): 81 ± 27 µM |
